The source of these data is patent US5486597A, “Tetrapeptide derivatives and analogues” (James Black Foundation Limited, priority 1990, dated 1996).

Non-standard residues stand in square brackets, D forms with d. Residues, ends and D or L forms follow the SMILES beside them. *: point of attachment. 1Nal = N[C@@H](Cc1cccc2ccccc12)C(=O)O; 2Nal = N[C@@H](Cc1ccc2ccccc2c1)C(=O)O; d1Nal = N[C@H](Cc1cccc2ccccc12)C(=O)O; d2Nal = N[C@H](Cc1ccc2ccccc2c1)C(=O)O; Phe(ol) = N[C@H](CO)Cc1ccccc1; Boc = CC(C)(C)OC(=O)*; For = O=C*

Common to all, as to type: cell-based
Assay [1] has as its target T1, cholecystokinin receptors (Cavia porcellus, UniProt Q63931).
T1 construct: Isolated, strip preparations were prepared from gall-bladders removed from male Dunkin-Hartley guinea-pigs; from tissue; host or cells: guinea-pig gall-bladder strips
T1 sequence (Q63931 1-430): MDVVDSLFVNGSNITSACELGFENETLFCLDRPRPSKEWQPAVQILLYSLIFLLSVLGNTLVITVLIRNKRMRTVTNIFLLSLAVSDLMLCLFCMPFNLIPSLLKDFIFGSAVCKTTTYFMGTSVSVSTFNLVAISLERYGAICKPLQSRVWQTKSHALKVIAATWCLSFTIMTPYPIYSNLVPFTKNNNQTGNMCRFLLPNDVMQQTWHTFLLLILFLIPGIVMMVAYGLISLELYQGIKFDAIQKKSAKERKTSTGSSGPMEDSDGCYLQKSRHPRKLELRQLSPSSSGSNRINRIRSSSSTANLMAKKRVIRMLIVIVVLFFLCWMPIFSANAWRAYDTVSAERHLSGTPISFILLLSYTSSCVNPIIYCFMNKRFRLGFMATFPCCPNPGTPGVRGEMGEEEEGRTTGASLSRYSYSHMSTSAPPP
Nature of the assay: CCK-antagonist activity in isolated guinea-pig gall-bladder strip preparations. Particulars: guinea-pig gall-bladder strips; CCK-8 as agonist; test compound incubated for 60 minutes; standard errors less than 5%. How it is done:
The compounds of the invention were also assayed for CCK-antagonist activity as follows:
Isolated, strip preparations were prepared from gall-bladders removed from male Dunkin-Hartley guinea-pigs (250-500 g body weight) according to the method of La Morte, W. W., et al., J.P.E.T., 217, (3), 638-644 (1981).
The complete gall-bladder is removed and opened along the longitudinal axis. Strips measuring 3 mm in the longitudinal axis and 1 mm in the transverse axis are cut and then tied with cotton to stainless steel wires. The preparation is connected to a GRASS FTO3 isometric transducer under an initial loading tension of 1 g and is immersed in 20 mls of Krebs solution maintained at 37° C. and gassed with 95% O2 /5% CO2. The Krebs solution is as detailed above in connection with the fundus assay, except that the Ca^2+ concentration is decreased to 0.5 mM. After 30 mins the preparation is washed. Drug addition begins after an initial 90 min stabilisation period. Responses are measured as changes in tension from that immediately prior to any drug addition. Single cumulative agonist concentration-effect curves, using CCK-8 as agonist, are obtained on each preparation in the absence and presence of test compound which has been incubated for 60 minutes. The antagonist activity of the test compound is estimated and expressed as the negative logarithm (base 10) of the equilibrium dissociation constants (pK8) using the modifications of standard competitive analysis described by Black et al., Br. J. Pharmacol.,86,571-579, (1985) and Shankley et al., Br. J. Pharmacol.,94,264-274 (1988).

In assay [2] the target is T2, gastrin receptor (Cavia porcellus, UniProt H0VZC5).
T2 construct: Strips of muscle (approximately 2.5 cm by 1 cm) are removed from the proximal area of the stomach; from tissue; host or cells: guinea-pig proximal stomach (fundus) muscle strips
T2 sequence (H0VZC5 1-426): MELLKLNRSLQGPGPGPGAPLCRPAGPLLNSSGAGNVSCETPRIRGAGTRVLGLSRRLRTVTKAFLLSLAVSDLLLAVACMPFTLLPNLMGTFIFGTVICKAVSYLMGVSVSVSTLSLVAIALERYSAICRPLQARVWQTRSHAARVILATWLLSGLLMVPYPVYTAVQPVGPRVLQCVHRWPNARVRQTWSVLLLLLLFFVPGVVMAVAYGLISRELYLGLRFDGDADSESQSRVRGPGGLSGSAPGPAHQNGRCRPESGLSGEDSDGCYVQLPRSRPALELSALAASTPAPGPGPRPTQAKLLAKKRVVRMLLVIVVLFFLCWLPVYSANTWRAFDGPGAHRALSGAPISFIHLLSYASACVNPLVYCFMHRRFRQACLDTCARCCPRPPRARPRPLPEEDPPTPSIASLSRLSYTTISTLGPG
Nature of the assay: guinea-pig fundus assay for gastrin activity (stomach muscle strips). Particulars: 10^-8 M devazepide present, 60 minute equilibration, agonist e.g. pentagastrin, standard errors less than 5%. As to the method: The compounds were assayed for gastrin activity using the mouse stomach assay as described by Black, J. W. and Shankley, N. P., Br. J. Pharmacol., 86, 571-579, (1985), and also in the guinea-pig fundus assay, as follows:
The stomach is removed from a male Dunkin-Hartley guinea-pig (250-500 g), and Krebs solution is injected through a hypodermic needle under the top stomach muscle layer. The composition (mM) of the Krebs solution is as follows: Na^+ 143, K^+ 5.9, Ca^2+ 2.5, Mg^2+ 1.2, Cl^- 128, H2 PO4^- 2.2, HCO3^- 24.9, SO4^2- 1.2, dextrose 10. Strips of muscle (approximately 2.5 cm by 1 cm) are removed from the proximal area of the stomach (one from each side) and tied with cotton thread to isotonic transducers under an initial loading tension of 0.35 g.
The preparation is immersed in 20 mls of Krebs solution containing 10^-8 M devazepide (25 μl 2×10^-3 M devazepide/100% DMF solution in 5 dm^3 Krebs) and gassed with 95% O2 /5% CO2. The function of the devazepide is to block possible effects at CCK receptors present in the tissue.
The preparation is washed twice over a 60 minute period then 10 mM KCl is added. At 90 minutes, test compounds (ie. potential antagonists) are added and a further 60 minute equilibration period allowed. After this time, cumulative agonist (e.g. pentagastrin) dose-response curves are constructed.

For assay [3], the target named is T3, gastrin receptor (Mus musculus, UniProt P56481).
T3 construct: assayed for gastrin activity using the mouse stomach assay; from tissue; host or cells: isolated mouse stomach
T3 sequence (P56481 1-453): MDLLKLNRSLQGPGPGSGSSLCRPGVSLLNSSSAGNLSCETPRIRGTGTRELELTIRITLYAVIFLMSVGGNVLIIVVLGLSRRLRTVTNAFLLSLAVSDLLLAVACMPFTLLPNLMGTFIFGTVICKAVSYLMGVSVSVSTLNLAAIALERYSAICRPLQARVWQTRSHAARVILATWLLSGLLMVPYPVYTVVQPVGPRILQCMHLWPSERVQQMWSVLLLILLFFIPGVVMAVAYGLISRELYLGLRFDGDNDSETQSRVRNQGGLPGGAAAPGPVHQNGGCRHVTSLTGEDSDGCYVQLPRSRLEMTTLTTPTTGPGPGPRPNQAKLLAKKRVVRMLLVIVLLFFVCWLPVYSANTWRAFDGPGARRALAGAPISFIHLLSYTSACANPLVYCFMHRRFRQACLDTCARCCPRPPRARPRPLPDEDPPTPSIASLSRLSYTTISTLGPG
Nature of the assay: mouse stomach assay for gastrin activity (isolated stomach, acid secretion). Particulars: for Acid seretion at 10^-5 M test compound, relative to pentagastrin (%): mouse stomach, NS = not significant. How it is done: The compounds were assayed for gastrin activity using the mouse stomach assay as described by Black, J. W. and Shankley, N. P., Br. J. Pharmacol., 86, 571-579, (1985), and also in the guinea-pig fundus assay, as follows: […]

[4] abbreviates: isolated mouse stomach assay, gastrin antagonism, standard errors less than 5%.

As for `CC(C)(C)OC(=O)N[C@@H](Cc1c[nH]c2ccccc12)C(=O)N[C@@H](Cc1ccc2ccccc2c1)C(=O)N[C@@H](CC(=O)O)C(=O)N[C@@H]1CCC[C@H]1c1ccccc1` (single isomer, unassigned; diastereomer 2) [Example 32, N-t-Butyloxycarbonyl-L-tryptophyl-L-3-(2-naphthyl)alanyl-L-aspartyl-trans-2-phenylcyclopentylamide (diastereomer 2)], the pKB in assay [1] is reported as 6.6; at gastrin receptor [2] it was 6.1.

Regarding `CC(C)(C)OC(=O)N[C@@H](Cc1c[nH]c2ccccc12)C(=O)N[C@H](Cc1ccc2ccccc2c1)C(=O)N[C@@H](CC(=O)O)C(=O)N[C@@H](Cc1ccccc1)C(N)=O` [Example 3, N-t-Butyloxycarbonyl-L-tryptophyl-D-3-(2-naphthyl)alanyl-L-aspartyl-L-phenylalaninamide] (Boc-W[d2Nal]DF-NH2), on gastrin receptor [2], the Kb is 2510 nM.

As for `CC(C)(C)OC(=O)N[C@@H](Cc1c[nH]c2ccccc12)C(=O)N[C@@H](Cc1cccc2ccccc12)C(=O)N[C@@H](CC(=O)O)C(=O)N[C@@H](Cc1ccccc1)C(N)=O` [Example 4, N-t-Butyloxycarbonyl-L-tryptophyl-L-3-(1-naphthyl)alanyl-L-aspartyl-L-phenylalaninamide] (Boc-W[1Nal]DF-NH2), the Kb on gastrin receptor [2] was 1580 nM.

Regarding `CC(C)(C)OC(=O)N[C@@H](Cc1c[nH]c2ccccc12)C(=O)N[C@@H](Cc1ccc2ccccc2c1)C(=O)N[C@@H](CC(=O)O)C(=O)N[C@H](CO)Cc1ccccc1` [Example 9, N-t-Butyloxycarbonyl-L-tryptophyl-L-3-(2-naphthyl)alanyl-L-aspartyl-L-phenylalaninol] (Boc-W[2Nal]D[Phe(ol)]), the values for the Kb (in assay [1]; on gastrin receptor [2]) were 1260 nM and 2510 nM, respectively.

As to `CC(C)(C)OC(=O)N[C@@H](Cc1c[nH]c2ccccc12)C(=O)N[C@@H](Cc1ccc2ccccc2c1)C(=O)N[C@H](CC(=O)O)C(=O)N[C@@H](Cc1ccccc1)C(N)=O` [Example 12, N-t-Butyloxycarbonyl-L-tryptophyl-L-3-(2-naphthyl)alanyl-D-aspartyl-L-phenylalaninamide] (Boc-W[2Nal][dD]F-NH2), the Kb in assay [1] was 39.8 nM; at gastrin receptor [2], 3160 nM.

Take `NC(=O)[C@H](Cc1ccccc1)NC(=O)[C@H](CC(=O)O)NC(=O)[C@H](Cc1ccc2ccccc2c1)NC(=O)[C@H](Cc1c[nH]c2ccccc12)NC=O` [Example 15, N-Formyl-L-tryptophyl-L-3-(2-naphthyl)alanyl-L-aspartyl-L-phenylalaninamide] (For-W[2Nal]DF-NH2): the Kb in assay [1] is 631 nM; on gastrin receptor [2], 5010 nM.

`CC(C)(C)OC(=O)N[C@@H](Cc1c[nH]c2ccccc12)C(=O)N[C@H](Cc1cccc2ccccc12)C(=O)N[C@@H](CC(=O)O)C(=O)N[C@@H](Cc1ccccc1)C(N)=O` [Example 24, N-t-Butyloxycarbonyl-L-tryptophyl-D-3-(1-naphthyl)alanyl-L-aspartyl-L-phenylalaninamide] (Boc-W[d1Nal]DF-NH2): the Kb at gastrin receptor [3] (isolated mouse stomach assay, gastrin antagonism, standard errors less than 5%, read-out: pKB mouse stomach (converted)) is 251 nM; in assay [1], 316 nM. In addition, the “Acid seretion at 10^-5 M test compound, relative to pentagastrin (%)” value (“Acid seretion … relative to pentagastrin (%)” below) at gastrin receptor [3] was found to be 50%.

Consider `CC(C)(C)OC(=O)N[C@@H](Cc1c[nH]c2ccccc12)C(=O)N[C@@H](Cc1ccc2ccccc2c1)C(=O)N[C@@H](CC(=O)O)C(=O)N1CCc2ccccc2C1` [Example 26, N-[N-t-Butyloxycarbonyl-L-tryptophyl-L-3-(2-naphthyl)alanyl-L-aspartyl]-1,2,3,4-tetrahydroisoquinolinamide], for which the results for the pKB (in assay [1]; on gastrin receptor [2]) were 6.6 and 5.5, respectively.

Regarding `CCCCOC(=O)N[C@@H](Cc1c[nH]c2ccccc12)C(=O)N[C@@H](Cc1ccc2ccccc2c1)C(=O)N[C@@H](CC(=O)O)C(=O)NCCc1ccccc1C(F)(F)F` [Example 27, N-Butyloxycarbonyl-L-tryptophyl-L-3-(2-naphthyl)alanyl-L-aspartyl-2-trifluoromethylphenethylamide], the pKB in assay [1] was 6.5; at gastrin receptor [2], 5.8.

In the case of `COc1ccc(CCNC(=O)[C@H](CC(=O)O)NC(=O)[C@H](Cc2ccc3ccccc3c2)N(C)C(=O)[C@H](Cc2c[nH]c3ccccc23)NC(=O)OC(C)(C)C)cc1` [Example 59, N-t-Butyloxycarbonyl-L-tryptophyl-N-methyl-L-3-(2-naphthyl)alanyl-L-aspartyl-4-methoxyphenethylamide], the pKB mouse stomach at gastrin receptor [3] (setting [4]) is reported as 5.3. For the same compound, the “Acid seretion … relative to pentagastrin (%)” value at gastrin receptor [3] worked out at 20%. Further, in assay [1], the pKB is on record as 6.7.

Regarding `CC(C)(C)OC(=O)N[C@@H](Cc1cn(C=O)c2ccccc12)C(=O)N[C@@H](Cc1ccc2ccccc2c1)C(=O)N[C@@H](CC(=O)O)C(=O)N[C@@H](Cc1ccccc1)C(N)=O` [Example 60, N-t-Butyloxycarbonyl-L-N^in-formyltryptophyl-L-3-(2-naphthyl)alanyl-L-aspartyl-L-phenylalaninamide] (Boc-W(For)[2Nal]DF-NH2), on gastrin receptor [3] (setting [4]), the pKB mouse stomach is on record as 5.3. For the same compound, the “Acid seretion … relative to pentagastrin (%)” value at gastrin receptor [3] worked out at 20%. Moreover, the negative logarithm of the KB (pKB) in assay [1] was determined as 6.4.

“N-t-Butyloxycarbonyl-L-tryptophyl-L-3-(2-naphthyl)alanyl-L-aspartyl]-3-azaspiro[5.4]decylamide [Example 62]” displayed a negative-log KB (pKB) at gastrin receptor [2] of 5.6.

“N-t-benzyloxycarbonyl-β-alanyl-L-tryptophyl-L-3-(2-naphthyl)alanyl-L- aspartyl-L-phenylalaninamide [Example 23]” gave a pKB mouse stomach at gastrin receptor [3] (setting [4]) of 5.5. Moreover, on gastrin receptor [3], the “Acid seretion … relative to pentagastrin (%)” value came out at 40%. In addition, in assay [1], the pKB is listed as 5.9.
